{
  "source": "patent US6245758A",
  "about": "“Methods of use for peroxynitrite decomposition catalysts, pharmaceutical compositions therefor” (priority 1996, dated 2001)",
  "key": {"[1]": {"assay": "Stopped-flow kinetic analysis of catalytic decomposition of peroxynitrite by metal complexes", "details": "pH = 7.4, 22° C.", "protocol": "To screen metal complexes for peroxynitrite decomposition catalytic activity of the present invention, peroxynitrite is prepared and isolated as its sodium salt by the reaction of acidic hydrogen peroxide with sodium nitrite followed by rapid quenching with NaOH as set out by Halfpenny and Robinson, in J. Chem. So., 1952, 928-938. Peroxynitrite has an absorbance maximum at 302 nm with an extinction coefficient of 1670 M^-1 cm^-1. Therefore, it is possible to directly observe the decomposition of peroxynitrite by stop-flow spectrophotometric analysis by monitoring the decomposition of the absorbance at 302 nm. That is, such observation of the decomposition of peroxynitrite at a rate accelerated over the natural decomposition rate with the addition of the metal complex identifies a compound of the present invention.\nKinetic measurements were made on an OLIS Rapid Scanning Stopped-Flow Spectrometer (On-Line Instrument Systems Inc., Bogart, Ga.)) using the OLISRSM-1000 Operating system for data acquisition and manipulation.\nThus, in a typical experiment the natural background decomposition rate of sodium peroxynitrite was determined as follows. A 24 mM stock solution of sodium peroxynitrite in 50 mM NaOH is load into the small volume syringe and 100 mM potassium phosphate pH=7.4 is charged into the large volume syringe of the stopped-flow spectrophotometer. All stopped -flow measurements were made at 22 ° C. Injection of the solutions into the sample compartment results in ~25 fold dilution of the stock sodium peroxynitrite. […] To test for catalytic peroxynitrite decomposition activity, the metal complex was dissolved in 100 mM potassium phosphate buffer pH=7.4 and loaded into the large syringe and the decomposition of peroxynitrite was monitored as described above. The catalytic rate constant (kcat M-1 sec^-1) for the complexes tested was determined by varying the complex concentration and plotting kobs vs [complex] Table 1. The kobs were obtained from averages of three stopped flow analysis at each catalyst concentration."}, "[2]": {"test_system": "carrageenan-induced paw edema", "assay": "Carrageenan-induced paw edema", "assay_type": "in vivo, rat", "description": "Carrageenan-induced paw edema. The effects of peroxynitrite catalysts in vivo were initially tested on the carrageenan-induced paw edema. The choice of using this in vivo model of inflammation was based on the knowledge that 1) the inflammatory response is blocked by NOS inhibitors and 2) by superoxide dismutase (SOD). This indicates the participation of both NO and of O2-. Male Sprague Dawley rats were purchased from Harlan Sprague-Dawley (Indianapolis, Ind.). Male Sprague Dawley rats (175-200 g) received a subplantar injection in the right hind paw of carrageenan (0.1 ml of a 1% suspension in 0.85% saline). Paw volume was measured by a plethysmometer immediately before the injection of carrageenan and then at hourly intervals from 1 to 6 h. Edema was expressed as the increase in paw volume (in ml) measured after carrageenan injection compared to the pre-injection value for individual animals."}, "[3]": {"details": "30 mg/kg i.v., 1 h post carrageenan"}, "[4]": {"details": "30 mg/kg i.v., 2 h post carrageenan"}, "[5]": {"details": "30 mg/kg i.v., 3 h post carrageenan"}, "[6]": {"details": "30 mg/kg i.v., 4 h post carrageenan"}, "[7]": {"details": "30 mg/kg i.v., 5 h post carrageenan"}, "[8]": {"details": "30 mg/kg i.v., 6 h post carrageenan"}},
  "note": "Counter-ions that a name gives are not always drawn.",
  "data": [
    {"compound": "Cc1c(-c2c3nc(c(-c4c(C)c(S(=O)(=O)O)c(C)c(S(=O)(=O)O)c4C)c4ccc([nH]4)c(-c4c(C)c(S(=O)(=O)O)c(C)c(S(=O)(=O)O)c4C)c4nc(c(-c5c(C)c(S(=O)(=O)O)c(C)c(S(=O)(=O)O)c5C)c5ccc2[nH]5)C=C4)C=C3)c(C)c(S(=O)(=O)O)c(C)c1S(=O)(=O)O", "note": "[Example H2TMPS, 5,10,15,20-tetrakis(3,5-disulfonatedmesityl)porphyrin octasodium salt]", "values": [
      {"measurement": "kcat, catalytic rate constant for the decomposition of sodium peroxynitrite", "setting": "[1]", "result": "Inactive"},
      {"measurement": "inhibition of edema formation", "setting": "[2]; 30 mg/kg i.v.", "result": "failed to inhibit edema formation"},
      {"measurement": "% Inhibition of Paw Edema", "setting": "[2]; [3]", "result": 0, "unit": "%"},
      {"measurement": "% Inhibition of Paw Edema", "setting": "[2]; [4]", "result": 0, "unit": "%"},
      {"measurement": "% Inhibition of Paw Edema", "setting": "[2]; [5]", "result": 0, "unit": "%"},
      {"measurement": "% Inhibition of Paw Edema", "setting": "[2]; [6]", "result": 0, "unit": "%"},
      {"measurement": "% Inhibition of Paw Edema", "setting": "[2]; [7]", "result": 0, "unit": "%"},
      {"measurement": "% Inhibition of Paw Edema", "setting": "[2]; [8]", "result": 0, "unit": "%"}
    ]},
    {"compound": "COc1cccc(C=NCCN=Cc2cccc(OC)c2[O-])c1[O-].[Cl-].[Fe+3]", "note": "[Fe(III)(3,3'MeO2 Salen)]", "values": [
      {"measurement": "kcat, catalytic rate constant for the decomposition of sodium peroxynitrite", "setting": "[1]", "result": 50000, "unit": "M⁻¹ s⁻¹"}
    ]},
    {"compound": "O=C([O-])CC(O)(CC(=O)[O-])C(=O)[O-].[Fe+3]", "note": "[Fe(III)Citrate, Iron(III)citrate, reference compound]", "values": [
      {"measurement": "kcat, catalytic rate constant for the decomposition of sodium peroxynitrite", "setting": "[1]", "result": 15000, "unit": "M⁻¹ s⁻¹"}
    ]},
    {"compound": "O=C([O-])CN(CCN(CC(=O)[O-])CC(=O)[O-])CC(=O)[O-].[Fe+3]", "note": "[Fe(III)EDTA, iron(III)EDTA, reference compound]", "values": [
      {"measurement": "kcat, catalytic rate constant for the decomposition of sodium peroxynitrite", "setting": "[1]", "result": 20000, "unit": "M⁻¹ s⁻¹"}
    ]},
    {"compound": "[Cl][Fe]([Cl])[Cl]", "note": "[FeCl3, reference compound]", "values": [
      {"measurement": "inhibition of edema formation", "setting": "[2]; 5 mg/kg, n=6", "result": "failed to inhibit edema formation"}
    ]},
    {"compound": "CC(=O)[O-].Cc1c(-c2c3nc(c(-c4c(C)c(S(=O)(=O)[O-])c(C)c(S(=O)(=O)[O-])c4C)c4ccc([n-]4)c(-c4c(C)c(S(=O)(=O)[O-])c(C)c(S(=O)(=O)[O-])c4C)c4nc(c(-c5c(C)c(S(=O)(=O)[O-])c(C)c(S(=O)(=O)[O-])c5C)c5ccc2[n-]5)C=C4)C=C3)c(C)c(S(=O)(=O)[O-])c(C)c1S(=O)(=O)[O-].[Mn+3].[Na+].[Na+].[Na+].[Na+].[Na+].[Na+].[Na+].[Na+]", "note": "[Mn(III)TMPS, Acetato 5,10,15,20tetrakis(3,5,disulfonatomesityl)porphyrin Manganese(III) octasodium salt]", "values": [
      {"measurement": "kcat, catalytic rate constant for the decomposition of sodium peroxynitrite", "setting": "[1]", "result": 29000, "unit": "M⁻¹ s⁻¹"},
      {"measurement": "% Inhibition of Paw Edema", "setting": "[2]; [3]", "result": 0, "unit": "%"},
      {"measurement": "% Inhibition of Paw Edema", "setting": "[2]; [4]", "result": 0, "unit": "%"},
      {"measurement": "% Inhibition of Paw Edema", "setting": "[2]; [5]", "result": 0, "unit": "%"},
      {"measurement": "% Inhibition of Paw Edema", "setting": "[2]; [6]", "result": 0, "unit": "%"},
      {"measurement": "% Inhibition of Paw Edema", "setting": "[2]; [7]", "result": 0, "unit": "%"},
      {"measurement": "% Inhibition of Paw Edema", "setting": "[2]; [8]", "result": 0, "unit": "%"}
    ]},
    {"compound": "CC1=NCCCNCCCN=C(C)c2cccc1n2.[Cl-].[Cl-].[Ni+2]", "note": "[Ni(CR)Cl2, reference compound]", "values": [
      {"measurement": "kcat, catalytic rate constant for the decomposition of sodium peroxynitrite", "setting": "[1]", "result": "Inactive"}
    ]},
    {"compound": "Cc1c(-c2c3nc(c(-c4c(C)c(S(=O)(=O)[O-])c(C)c(S(=O)(=O)[O-])c4C)c4ccc([n-]4)c(-c4c(C)c(S(=O)(=O)[O-])c(C)c(S(=O)(=O)[O-])c4C)c4nc(c(-c5c(C)c(S(=O)(=O)[O-])c(C)c(S(=O)(=O)[O-])c5C)c5ccc2[n-]5)C=C4)C=C3)c(C)c(S(=O)(=O)[O-])c(C)c1S(=O)(=O)[O-].[Na+].[Na+].[Na+].[Na+].[Na+].[Na+].[Na+].[Na+].[Ni+2]", "note": "[Ni(II)TMPS, Acetato-5,10,15,20-tetrakis(3,5-disulfonatomesityl)porphyrin Nickel (II) octasodium salt]", "values": [
      {"measurement": "kcat, catalytic rate constant for the decomposition of sodium peroxynitrite", "setting": "[1]", "result": 87200, "unit": "M⁻¹ s⁻¹"}
    ]},
    {"compound": "CC1=CC(C)=Nc2ccccc2[N-]C(C)=CC(C)=Nc2ccccc2[N-]1.[Ni+2]", "note": "[Ni(II)[14]12eneN4]", "values": [
      {"measurement": "kcat, catalytic rate constant for the decomposition of sodium peroxynitrite", "setting": "[1]", "result": 17000, "unit": "M⁻¹ s⁻¹"}
    ]},
    {"compound": "Cc1c(-c2c3nc(c(-c4c(C)c(S(=O)(=O)[O-])c(C)c(S(=O)(=O)[O-])c4C)c4ccc([n-]4)c(-c4c(C)c(S(=O)(=O)[O-])c(C)c(S(=O)(=O)[O-])c4C)c4nc(c(-c5c(C)c(S(=O)(=O)[O-])c(C)c(S(=O)(=O)[O-])c5C)c5ccc2[n-]5)C=C4)C=C3)c(C)c(S(=O)(=O)[O-])c(C)c1S(=O)(=O)[O-].[Na+].[Na+].[Na+].[Na+].[Na+].[Na+].[Na+].[Na+].[Zn+2]", "note": "[ZnTMPS, reference compound]", "values": [
      {"measurement": "% Inhibition of Paw Edema", "setting": "[2]; [3]", "result": 0, "unit": "%"},
      {"measurement": "% Inhibition of Paw Edema", "setting": "[2]; [4]", "result": 0, "unit": "%"},
      {"measurement": "% Inhibition of Paw Edema", "setting": "[2]; [5]", "result": 0, "unit": "%"},
      {"measurement": "% Inhibition of Paw Edema", "setting": "[2]; [6]", "result": 0, "unit": "%"},
      {"measurement": "% Inhibition of Paw Edema", "setting": "[2]; [7]", "result": 0, "unit": "%"},
      {"measurement": "% Inhibition of Paw Edema", "setting": "[2]; [8]", "result": 0, "unit": "%"}
    ]},
    {"compound": "MnTPPS [reference compound]", "values": [
      {"measurement": "inhibition of edema formation", "setting": "[2]; 30 mg/kg i.v.", "result": "failed to inhibit edema formation"}
    ]}
  ]
}
